# ChEMBL document CHEMBL3885881, “DrugMatrix”
# Species: Rattus norvegicus
# Assay: DrugMatrix - Regimen: Daily Repeat
# Format: toxicity, organism-based, Sprague-Dawley
# Design: regimen Daily Repeat, gender Male, age 6-8 weeks
# Settings: in vivo, ip, 0 mg/kg, route intraperitoneal, dose level Control, vehicle 100 % SALINE; for ABSOLUTE BASOPHIL / ABSOLUTE EOSINOPHIL / ABSOLUTE LYMPHOCYTE / ABSOLUTE MONOCYTE / ABSOLUTE SEGMENTED NEUTROPHIL / BASOPHIL / EOSINOPHIL / ERYTHROCYTE COUNT / HEMATOCRIT / HEMOGLOBIN / LEUKOCYTE COUNT / LYMPHOCYTE / MEAN CORPUSCULAR HEMOGLOBIN / MEAN CORPUSCULAR HEMOGLOBIN CONCENTRATION / MEAN CORPUSCULAR VOLUME / MONOCYTE / NEUTROPHIL / NUCLEATED RED BLOOD CELLS / PLATELET COUNT: tissue Blood; for ALANINE AMINOTRANSFERASE / ALKALINE PHOSPHATASE / ASPARTATE AMINOTRANSFERASE / BLOOD UREA NITROGEN / CARBON DIOXIDE / CHLORIDE / CHOLESTEROL / CREATININE / GLUCOSE / LACTATE DEHYDROGENASE / LIPASE / PHOSPHORUS / POTASSIUM / SODIUM / TOTAL BILIRUBIN / TOTAL PROTEIN / URIC ACID: tissue Plasma
smiles,measurement,setting,value
CC[C@H]1CN2CCc3cc(OC)c(OC)cc3[C@@H]2C[C@@H]1C[C@H]1NCCc2cc(OC)c(OC)cc21 [EMETINE],ABSOLUTE BASOPHIL,"72 h, time 3 day",0 CELLS/uL
same,ABSOLUTE EOSINOPHIL,"72 h, time 3 day",109.67 CELLS/uL
same,ABSOLUTE LYMPHOCYTE,"72 h, time 3 day",11168.33 CELLS/uL
same,ABSOLUTE MONOCYTE,"72 h, time 3 day",226.17 CELLS/uL
same,ABSOLUTE SEGMENTED NEUTROPHIL,"72 h, time 3 day",695.83 CELLS/uL
same,BASOPHIL,"72 h, time 3 day",0%
same,EOSINOPHIL,"72 h, time 3 day",0.83%
same,ERYTHROCYTE COUNT,"72 h, time 3 day",6.2 x10E6/uL
same,HEMATOCRIT,"72 h, time 3 day",37.68%
same,HEMOGLOBIN,"72 h, time 3 day",13.67 G/DL
same,LEUKOCYTE COUNT,"72 h, time 3 day",12.2 x10E3/uL
same,LYMPHOCYTE,"72 h, time 3 day",91.83%
same,MEAN CORPUSCULAR HEMOGLOBIN,"72 h, time 3 day",22.08 pg
same,MEAN CORPUSCULAR HEMOGLOBIN CONCENTRATION,"72 h, time 3 day",36.3 G/DL
same,MEAN CORPUSCULAR VOLUME,"72 h, time 3 day",60.77 fL
same,MONOCYTE,"72 h, time 3 day",1.83%
same,NEUTROPHIL,"72 h, time 3 day",5.5%
same,NUCLEATED RED BLOOD CELLS,"72 h, time 3 day",0 /100WBC
same,PLATELET COUNT,"72 h, time 3 day",755.67 x10E3/uL
same,ALANINE AMINOTRANSFERASE,"72 h, time 3 day",60.83 u/L
same,ALKALINE PHOSPHATASE,"72 h, time 3 day",392.5 u/L
same,ASPARTATE AMINOTRANSFERASE,"72 h, time 3 day",97 u/L
same,BLOOD UREA NITROGEN,"72 h, time 3 day",16.5 mg/dL
same,CARBON DIOXIDE,"72 h, time 3 day",29.83 mmol/L
same,CHLORIDE,"72 h, time 3 day",101.83 MEQ/L
same,CHOLESTEROL,"72 h, time 3 day",72.5 mg/dL
same,CREATININE,"72 h, time 3 day",0.28 mg/dL
same,GLUCOSE,"72 h, time 3 day",195.33 mg/dL
same,LACTATE DEHYDROGENASE,"72 h, time 3 day",240.33 u/L
same,LIPASE,"72 h, time 3 day",9.67 u/L
same,PHOSPHORUS,"72 h, time 3 day",12.47 mg/dL
same,POTASSIUM,"72 h, time 3 day",6.15 MEQ/L
same,SODIUM,"72 h, time 3 day",145.38 MEQ/L
same,TOTAL BILIRUBIN,"72 h, time 3 day",0.17 mg/dL
same,TOTAL PROTEIN,"72 h, time 3 day",6.7 G/DL
same,URIC ACID,"72 h, time 3 day",2.42 mg/dL
same,ABSOLUTE BASOPHIL,"120 h, time 5 day",0 CELLS/uL
same,ABSOLUTE EOSINOPHIL,"120 h, time 5 day",50 CELLS/uL
same,ABSOLUTE LYMPHOCYTE,"120 h, time 5 day",12777 CELLS/uL
same,ABSOLUTE MONOCYTE,"120 h, time 5 day",280.67 CELLS/uL
same,ABSOLUTE SEGMENTED NEUTROPHIL,"120 h, time 5 day",875.67 CELLS/uL
same,BASOPHIL,"120 h, time 5 day",0%
same,EOSINOPHIL,"120 h, time 5 day",0.5%
same,ERYTHROCYTE COUNT,"120 h, time 5 day",6.42 x10E6/uL
same,HEMATOCRIT,"120 h, time 5 day",39.13%
same,HEMOGLOBIN,"120 h, time 5 day",14.17 G/DL
same,LEUKOCYTE COUNT,"120 h, time 5 day",13.98 x10E3/uL
same,LYMPHOCYTE,"120 h, time 5 day",90.83%
same,MEAN CORPUSCULAR HEMOGLOBIN,"120 h, time 5 day",22.1 pg
same,MEAN CORPUSCULAR HEMOGLOBIN CONCENTRATION,"120 h, time 5 day",36.2 G/DL
same,MEAN CORPUSCULAR VOLUME,"120 h, time 5 day",61.07 fL
same,MONOCYTE,"120 h, time 5 day",2%
same,NEUTROPHIL,"120 h, time 5 day",6.67%
same,NUCLEATED RED BLOOD CELLS,"120 h, time 5 day",0 /100WBC
same,PLATELET COUNT,"120 h, time 5 day",838.67 x10E3/uL
same,ALANINE AMINOTRANSFERASE,"120 h, time 5 day",56.5 u/L
same,ALKALINE PHOSPHATASE,"120 h, time 5 day",316.5 u/L
same,ASPARTATE AMINOTRANSFERASE,"120 h, time 5 day",131 u/L
same,BLOOD UREA NITROGEN,"120 h, time 5 day",14.33 mg/dL
same,CARBON DIOXIDE,"120 h, time 5 day",29.83 mmol/L
same,CHLORIDE,"120 h, time 5 day",100.5 MEQ/L
same,CHOLESTEROL,"120 h, time 5 day",65.83 mg/dL
same,CREATININE,"120 h, time 5 day",0.23 mg/dL
same,GLUCOSE,"120 h, time 5 day",268.83 mg/dL
same,LACTATE DEHYDROGENASE,"120 h, time 5 day",343 u/L
same,LIPASE,"120 h, time 5 day",9.33 u/L
same,PHOSPHORUS,"120 h, time 5 day",13.95 mg/dL
same,POTASSIUM,"120 h, time 5 day",5.37 MEQ/L
same,SODIUM,"120 h, time 5 day",146.53 MEQ/L
same,TOTAL BILIRUBIN,"120 h, time 5 day",0.12 mg/dL
same,TOTAL PROTEIN,"120 h, time 5 day",6.37 G/DL
same,URIC ACID,"120 h, time 5 day",1.97 mg/dL
same,ABSOLUTE BASOPHIL,"[…], time 14 day",0 CELLS/uL
same,ABSOLUTE EOSINOPHIL,"[…], time 14 day",111.67 CELLS/uL
same,ABSOLUTE LYMPHOCYTE,"[…], time 14 day",12370.33 CELLS/uL
same,ABSOLUTE MONOCYTE,"[…], time 14 day",653.33 CELLS/uL
same,ABSOLUTE SEGMENTED NEUTROPHIL,"[…], time 14 day",1414.67 CELLS/uL
same,BASOPHIL,"[…], time 14 day",0%
same,EOSINOPHIL,"[…], time 14 day",0.67%
same,ERYTHROCYTE COUNT,"[…], time 14 day",6.03 x10E6/uL
same,HEMATOCRIT,"[…], time 14 day",36.65%
same,HEMOGLOBIN,"[…], time 14 day",13.4 G/DL
same,LEUKOCYTE COUNT,"[…], time 14 day",14.55 x10E3/uL
same,LYMPHOCYTE,"[…], time 14 day",85.33%
same,MEAN CORPUSCULAR HEMOGLOBIN,"[…], time 14 day",22.27 pg
same,MEAN CORPUSCULAR HEMOGLOBIN CONCENTRATION,"[…], time 14 day",36.58 G/DL
same,MEAN CORPUSCULAR VOLUME,"[…], time 14 day",60.85 fL
same,MONOCYTE,"[…], time 14 day",4.5%
same,NEUTROPHIL,"[…], time 14 day",9.5%
same,NUCLEATED RED BLOOD CELLS,"[…], time 14 day",0 /100WBC
same,PLATELET COUNT,"[…], time 14 day",942 x10E3/uL
same,ALANINE AMINOTRANSFERASE,"[…], time 14 day",53.33 u/L
same,ALKALINE PHOSPHATASE,"[…], time 14 day",293.67 u/L
same,ASPARTATE AMINOTRANSFERASE,"[…], time 14 day",96.83 u/L
same,BLOOD UREA NITROGEN,"[…], time 14 day",15.5 mg/dL
same,CARBON DIOXIDE,"[…], time 14 day",32.17 mmol/L
same,CHLORIDE,"[…], time 14 day",101.33 MEQ/L
same,CHOLESTEROL,"[…], time 14 day",64 mg/dL
same,CREATININE,"[…], time 14 day",0.25 mg/dL
same,GLUCOSE,"[…], time 14 day",178.67 mg/dL
same,LACTATE DEHYDROGENASE,"[…], time 14 day",179.5 u/L
same,LIPASE,"[…], time 14 day",9.17 u/L
same,PHOSPHORUS,"[…], time 14 day",10.88 mg/dL
same,POTASSIUM,"[…], time 14 day",5.91 MEQ/L
same,SODIUM,"[…], time 14 day",145.68 MEQ/L
same,TOTAL BILIRUBIN,"[…], time 14 day",0.2 mg/dL
same,TOTAL PROTEIN,"[…], time 14 day",6.38 G/DL
same,URIC ACID,"[…], time 14 day",1.12 mg/dL
